Test results: PubChem BioAssay (NCI)
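Test compounds were applied to cells in 96-well plates for 48 hours at 5 doses. At the GI50, growth is halved. TGI: concentration producing complete growth inhibition.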

Experiments:
Assay in all cases: DTP human tumour cell line panel, 48 h
786-0 renal = tested on: 786-0 renal
A498 renal = tested on: A498 renal
A549 NSCLC = tested on: A549 NSCLC
ACHN renal = tested on: ACHN renal
BT-549 breast = tested on: BT-549 breast
CAKI-1 renal = tested on: CAKI-1 renal
CCRF-CEM leukemia = tested on: CCRF-CEM leukemia
COLO 205 colon = tested on: COLO 205 colon
DU-145 prostate = tested on: DU-145 prostate
EKVX NSCLC = tested on: EKVX NSCLC
HCC-2998 colon = tested on: HCC-2998 colon
HCT-116 colon = tested on: HCT-116 colon
HCT-15 colon = tested on: HCT-15 colon
HL-60(TB) leukemia = tested on: HL-60(TB) leukemia
HOP-62 NSCLC = tested on: HOP-62 NSCLC
HOP-92 NSCLC = tested on: HOP-92 NSCLC
HS 578T breast = tested on: HS 578T breast
HT29 colon = tested on: HT29 colon
IGROV1 ovarian = tested on: IGROV1 ovarian
K-562 leukemia = tested on: K-562 leukemia
KM12 colon = tested on: KM12 colon
LOX IMVI melanoma = tested on: LOX IMVI melanoma
M14 melanoma = tested on: M14 melanoma
MALME-3M melanoma = tested on: MALME-3M melanoma
MCF7 breast = tested on: MCF7 breast
MDA-MB-231 breast = tested on: MDA-MB-231 breast
MDA-MB-435 = tested on: MDA-MB-435
MDA-MB-468 breast = tested on: MDA-MB-468 breast
MOLT-4 leukemia = tested on: MOLT-4 leukemia
NCI-H226 lung = tested on: NCI-H226 lung
NCI-H23 lung = tested on: NCI-H23 lung
NCI-H460 lung = tested on: NCI-H460 lung
NCI-H522 lung = tested on: NCI-H522 lung
NCI/ADR-RES ovarian = tested on: NCI/ADR-RES ovarian
OVCAR-3 ovarian = tested on: OVCAR-3 ovarian
OVCAR-4 ovarian = tested on: OVCAR-4 ovarian
OVCAR-5 ovarian = tested on: OVCAR-5 ovarian
OVCAR-8 ovarian = tested on: OVCAR-8 ovarian
PC-3 prostate = tested on: PC-3 prostate
RPMI-8226 leukemia = tested on: RPMI-8226 leukemia
RXF 393 renal = tested on: RXF 393 renal
SF-268 CNS = tested on: SF-268 CNS
SF-295 CNS = tested on: SF-295 CNS
SF-539 CNS = tested on: SF-539 CNS
SK-MEL-2 melanoma = tested on: SK-MEL-2 melanoma
SK-MEL-28 melanoma = tested on: SK-MEL-28 melanoma
SK-MEL-5 melanoma = tested on: SK-MEL-5 melanoma
SK-OV-3 ovarian = tested on: SK-OV-3 ovarian
SN12C renal = tested on: SN12C renal
SNB-19 CNS = tested on: SNB-19 CNS
SNB-75 CNS = tested on: SNB-75 CNS
SR leukemia = tested on: SR leukemia
SW-620 colon = tested on: SW-620 colon
T-47D breast = tested on: T-47D breast
TK-10 renal = tested on: TK-10 renal
U251 CNS = tested on: U251 CNS
UACC-257 melanoma = tested on: UACC-257 melanoma
UACC-62 melanoma = tested on: UACC-62 melanoma
UO-31 renal = tested on: UO-31 renal

Which GI50 (786-0 renal) does the source give for `Oc1ccc(Cl)c(Nc2ncnc3c2cnn3CC(Cl)c2ccc(Br)cc2)c1` (stereo not drawn) here?
Its GI50 is 5.7 µM.

And the TGI (786-0 renal)?
Its TGI is 23.3 µM.

What about the GI50 (A498 renal) of the same molecule?
The GI50 was 16.2 µM.

And the TGI (A498 renal)?
Its TGI is 30.7 µM.

What about the GI50 (A549 NSCLC) of the same molecule?
The GI50 was 12.1 µM.

And the TGI (A549 NSCLC)?
The TGI was 37.3 µM.

What about the GI50 (ACHN renal) of the same molecule?
The GI50 was 2.12 µM.

What about the TGI (ACHN renal) of the same molecule?
Its TGI is 15.3 µM.

And the GI50 (BT-549 breast)?
The GI50 was 12.7 µM.

What about the TGI (BT-549 breast) of the same molecule?
Its TGI is 25.4 µM.

What about the GI50 (CAKI-1 renal) of the same molecule?
Its GI50 is 3.72 µM.

And the TGI (CAKI-1 renal)?
The TGI was 28.6 µM.

And the GI50 (CCRF-CEM leukemia)?
The GI50 was 13.6 µM.

And the TGI (CCRF-CEM leukemia)?
The TGI was 60.1 µM.

And the GI50 (COLO 205 colon)?
The GI50 was 17.7 µM.

What about the TGI (COLO 205 colon) of the same molecule?
Its TGI is 38.7 µM.

And the GI50 (DU-145 prostate)?
The GI50 was 10.6 µM.

And the TGI (DU-145 prostate)?
Its TGI is 32 µM.

And the GI50 (EKVX NSCLC)?
Its GI50 is 11.9 µM.

And the TGI (EKVX NSCLC)?
Its TGI is 34.6 µM.

And the GI50 (HCC-2998 colon)?
Its GI50 is 14.9 µM.

And the TGI (HCC-2998 colon)?
Its TGI is 29.1 µM.

What about the GI50 (HCT-116 colon) of the same molecule?
Its GI50 is 7.89 µM.

And the TGI (HCT-116 colon)?
Its TGI is 21.4 µM.

What about the GI50 (HCT-15 colon) of the same molecule?
The GI50 was 4.57 µM.

What about the TGI (HCT-15 colon) of the same molecule?
Its TGI is 19.4 µM.

And the GI50 (HL-60(TB) leukemia)?
Its GI50 is 23.2 µM.

What about the TGI (HL-60(TB) leukemia) of the same molecule?
Its TGI is 62.2 µM.

What about the GI50 (HOP-62 NSCLC) of the same molecule?
The GI50 was 11.7 µM.

And the TGI (HOP-62 NSCLC)?
Its TGI is 30.5 µM.

What about the GI50 (HOP-92 NSCLC) of the same molecule?
Its GI50 is 2.34 µM.

And the TGI (HOP-92 NSCLC)?
The TGI was 12.4 µM.

What about the GI50 (HS 578T breast) of the same molecule?
Its GI50 is 1.13 µM.

And the TGI (HS 578T breast)?
The TGI was 7.95 µM.

And the GI50 (HT29 colon)?
The GI50 was 13.9 µM.

What about the TGI (HT29 colon) of the same molecule?
The TGI was 31.9 µM.

And the GI50 (IGROV1 ovarian)?
The GI50 was 2.39 µM.

What about the TGI (IGROV1 ovarian) of the same molecule?
The TGI was 8.31 µM.

And the GI50 (K-562 leukemia)?
The GI50 was 0.0826 µM.

And the TGI (K-562 leukemia)?
The TGI was 12.9 µM.

What about the GI50 (KM12 colon) of the same molecule?
The GI50 was 19.3 µM.

What about the TGI (KM12 colon) of the same molecule?
Its TGI is 42.9 µM.

What about the GI50 (LOX IMVI melanoma) of the same molecule?
Its GI50 is 2.09 µM.

What about the TGI (LOX IMVI melanoma) of the same molecule?
Its TGI is 11.8 µM.

What about the GI50 (M14 melanoma) of the same molecule?
The GI50 was 11.2 µM.

What about the TGI (M14 melanoma) of the same molecule?
Its TGI is 24.3 µM.

What about the GI50 (MALME-3M melanoma) of the same molecule?
The GI50 was 12.3 µM.

What about the TGI (MALME-3M melanoma) of the same molecule?
The TGI was 25.1 µM.

What about the GI50 (MCF7 breast) of the same molecule?
The GI50 was 11.1 µM.

What about the TGI (MCF7 breast) of the same molecule?
The TGI was 26.2 µM.

What about the GI50 (MDA-MB-231 breast) of the same molecule?
The GI50 was 7.29 µM.

What about the TGI (MDA-MB-231 breast) of the same molecule?
The TGI was 21 µM.

And the GI50 (MDA-MB-435)?
The GI50 was 11.9 µM.

And the TGI (MDA-MB-435)?
Its TGI is 26.8 µM.

What about the GI50 (MDA-MB-468 breast) of the same molecule?
Its GI50 is 3.35 µM.

And the TGI (MDA-MB-468 breast)?
The TGI was 16.3 µM.

And the GI50 (MOLT-4 leukemia)?
Its GI50 is 6.75 µM.

And the TGI (MOLT-4 leukemia)?
The TGI was 37.7 µM.

What about the GI50 (NCI-H226 lung) of the same molecule?
Its GI50 is 11.8 µM.

And the TGI (NCI-H226 lung)?
The TGI was 28.7 µM.

What about the GI50 (NCI-H23 lung) of the same molecule?
Its GI50 is 12.6 µM.

And the TGI (NCI-H23 lung)?
Its TGI is 26.3 µM.

And the GI50 (NCI-H460 lung)?
Its GI50 is 16.7 µM.

And the TGI (NCI-H460 lung)?
The TGI was 36.5 µM.

What about the GI50 (NCI-H522 lung) of the same molecule?
The GI50 was 7.4 µM.

And the TGI (NCI-H522 lung)?
The TGI was 27.8 µM.

What about the GI50 (NCI/ADR-RES ovarian) of the same molecule?
The GI50 was 7.47 µM.

What about the TGI (NCI/ADR-RES ovarian) of the same molecule?
The TGI was 27.4 µM.

And the GI50 (OVCAR-3 ovarian)?
Its GI50 is 7.99 µM.

And the TGI (OVCAR-3 ovarian)?
Its TGI is 38.8 µM.

What about the GI50 (OVCAR-4 ovarian) of the same molecule?
The GI50 was 13.1 µM.

And the TGI (OVCAR-4 ovarian)?
Its TGI is 54.4 µM.

And the GI50 (OVCAR-5 ovarian)?
Its GI50 is 10.3 µM.

What about the TGI (OVCAR-5 ovarian) of the same molecule?
The TGI was 24.4 µM.

And the GI50 (OVCAR-8 ovarian)?
The GI50 was 7.97 µM.

And the TGI (OVCAR-8 ovarian)?
The TGI was 25.9 µM.

What about the GI50 (PC-3 prostate) of the same molecule?
The GI50 was 4.53 µM.

What about the TGI (PC-3 prostate) of the same molecule?
Its TGI is 35.4 µM.

And the GI50 (RPMI-8226 leukemia)?
Its GI50 is 17 µM.

What about the TGI (RPMI-8226 leukemia) of the same molecule?
The TGI was 93.8 µM.

What about the GI50 (RXF 393 renal) of the same molecule?
Its GI50 is 0.766 µM.

And the TGI (RXF 393 renal)?
Its TGI is 7.17 µM.

What about the GI50 (SF-268 CNS) of the same molecule?
The GI50 was 6.07 µM.

And the TGI (SF-268 CNS)?
Its TGI is 33.5 µM.

What about the GI50 (SF-295 CNS) of the same molecule?
The GI50 was 6.2 µM.

What about the TGI (SF-295 CNS) of the same molecule?
The TGI was 27.3 µM.

And the GI50 (SF-539 CNS)?
The GI50 was 4.64 µM.

What about the TGI (SF-539 CNS) of the same molecule?
Its TGI is 18.1 µM.

What about the GI50 (SK-MEL-2 melanoma) of the same molecule?
The GI50 was 17.5 µM.

And the TGI (SK-MEL-2 melanoma)?
The TGI was 34.3 µM.

And the GI50 (SK-MEL-28 melanoma)?
Its GI50 is 14.9 µM.

And the TGI (SK-MEL-28 melanoma)?
The TGI was 28.9 µM.

What about the GI50 (SK-MEL-5 melanoma) of the same molecule?
Its GI50 is 10.5 µM.

What about the TGI (SK-MEL-5 melanoma) of the same molecule?
Its TGI is 22.3 µM.

And the GI50 (SK-OV-3 ovarian)?
Its GI50 is 7.63 µM.

What about the TGI (SK-OV-3 ovarian) of the same molecule?
Its TGI is 31.3 µM.

What about the GI50 (SN12C renal) of the same molecule?
The GI50 was 3.79 µM.

What about the TGI (SN12C renal) of the same molecule?
Its TGI is 18.1 µM.

And the GI50 (SNB-19 CNS)?
Its GI50 is 12.4 µM.

What about the TGI (SNB-19 CNS) of the same molecule?
The TGI was 36 µM.

What about the GI50 (SNB-75 CNS) of the same molecule?
The GI50 was 1.03 µM.

And the TGI (SNB-75 CNS)?
The TGI was 5.58 µM.

And the GI50 (SR leukemia)?
The GI50 was 6.67 µM.

And the TGI (SR leukemia)?
The TGI was 81.6 µM.

And the GI50 (SW-620 colon)?
Its GI50 is 21.9 µM.

What about the TGI (SW-620 colon) of the same molecule?
The TGI was 47.4 µM.

What about the GI50 (T-47D breast) of the same molecule?
Its GI50 is 4.48 µM.

What about the TGI (T-47D breast) of the same molecule?
Its TGI is 55.4 µM.

What about the GI50 (TK-10 renal) of the same molecule?
The GI50 was 13.9 µM.

And the TGI (TK-10 renal)?
The TGI was 29 µM.

And the GI50 (U251 CNS)?
The GI50 was 11.3 µM.

What about the TGI (U251 CNS) of the same molecule?
Its TGI is 25.5 µM.

And the GI50 (UACC-257 melanoma)?
Its GI50 is 13.8 µM.

What about the TGI (UACC-257 melanoma) of the same molecule?
Its TGI is 28.3 µM.

What about the GI50 (UACC-62 melanoma) of the same molecule?
Its GI50 is 12.6 µM.

And the TGI (UACC-62 melanoma)?
The TGI was 25.2 µM.

And the GI50 (UO-31 renal)?
Its GI50 is 2.34 µM.

What about the TGI (UO-31 renal) of the same molecule?
The TGI was 17 µM.
